Measurements published in US20020035061A1, “COMPOSITIONS AND METHODS FOR TREATING INFECTIONS USING CATIONIC PEPTIDES ALONE OR IN COMBINATION WITH ANTIBIOTICS” (priority 1996, published 2002).
Where two headings read alike, the source gives them in different places.

How the values were obtained:
Type in all cases: cell-based
E. faecalis = system: E. faecalis
E. faecium = system: E. faecium
S. aureus = system: S. aureus
S. maltophilia = system: S. maltophilia
K. pneumoniae = system: K. pneumoniae
S. marcescens = system: S. marcescens
E. cloacae = system: E. cloacae
P. aeruginosa = system: P. aeruginosa
E. coli = system: E. coli
A. calcoaceticus = system: A. calcoaceticus
S. epidermidis = system: S. epidermidis
[1] = system: inherently resistant microorganisms; test: microbe, parasite or virus in culture; details: P. aeruginosa
bacterial isolates = test: microbe, parasite or virus in culture; details: for Peptide MIC Alone: 2. Ceftriaxone
[2] = system: microorganisms with acquired resistance; test: microbe, parasite or virus in culture; details: for Peptide MIC Alone: Ceftriaxone section; for FIC: peptide + Ceftriaxone

In the case of ILKKWPWWWRK [MBI 11D15CN], the MIC (E. faecalis; E. faecalis strain EFS002) is reported as 32 µg/mL, the MIC (E. faecium; E. faecium strain EFM003) is reported as 4 µg/mL and the MIC (S. aureus; S. aureus strain SA009) is reported as 8 µg/mL.

With ILKKWPWWPWRRK [MBI 11] the MIC (S. maltophilia; S. maltophilia SMA002) was 128 µg/mL, the MIC (K. pneumoniae; K. pneumoniae KP001) was 128 µg/mL and the MIC (S. marcescens; S. marcescens SMS004) was >128 µg/mL. The MIC (E. cloacae; E. cloacae ECL007) was >128 µg/mL, the MIC (P. aeruginosa; P. aeruginosa PA004) was >128 µg/mL and the MIC (E. coli; E. coli ECO002) was 64 µg/mL. For the same sequence, the MIC (E. faecalis; E. faecalis EFS002) was 64 µg/mL, the MIC (A. calcoaceticus; A. calcoaceticus AC002) was 8 µg/mL and the MIC (E. faecium; E. faecium EFM003) was 4 µg/mL. The MIC (S. aureus; S. aureus SA004) was 4 µg/mL.

ILKWPWWPWRRK [MBI 11B3CN] was tested, and the MIC (S. maltophilia; S. maltophilia strain SMA002) was 32 µg/mL, the MIC (K. pneumoniae; K. pneumoniae strain KP002) was 64 µg/mL and the MIC (S. marcescens; S. marcescens strain SMS004) was >128 µg/mL. For the same sequence, the MIC (E. cloacae; E. cloacae strain ECL007) was >128 µg/mL, the MIC (P. aeruginosa; P. aeruginosa strain PA003) was >128 µg/mL and the MIC (E. coli; E. coli strain ECO002) was 16 µg/mL. It also gave an MIC (E. faecalis; E. faecalis strain EFS001) of 16 µg/mL, an MIC (A. calcoaceticus; A. calcoaceticus strain AC001) of 64 µg/mL and an MIC (E. faecium; E. faecium strain EFM001) of 8 µg/mL. For the same sequence, the MIC (S. aureus; S. aureus strain SA010) was 4 µg/mL.

With ILKKWPWWVWRRK [MBI 11F2CN] the MIC (S. maltophilia; S. maltophilia strain SMA002) was 64 µg/mL, the MIC (K. pneumoniae; K. pneumoniae strain KP002) was 128 µg/mL and the MIC (S. marcescens; S. marcescens strain SMS004) was >128 µg/mL. For the same sequence, the MIC (P. aeruginosa; P. aeruginosa strain PA005) was >128 µg/mL, the MIC (E. coli; E. coli strain ECO002) was 8 µg/mL and the MIC (E. faecalis; E. faecalis strain EFS002) was 32 µg/mL. It also gave an MIC (A. calcoaceticus; A. calcoaceticus strain AC002) of 4 µg/mL, an MIC (E. faecium; E. faecium strain EFM002) of 4 µg/mL and an MIC (S. aureus; S. aureus strain SA012) of 4 µg/mL. It also gave an MIC (S. epidermidis; S. epidermidis strain SE002) of 4 µg/mL.

For WRWWKPKWRWPKW [MBI 11J02CN], the “Peptide MIC + Ceftriaxone” value [1] was 32 µg/mL, the “Peptide MIC Alone” value ([1]; Ceftriaxone section) was 64 µg/mL and the MIC (S. maltophilia; S. maltophilia SMA002) was 8 µg/mL. The MIC (K. pneumoniae; K. pneumoniae KP001) was 4 µg/mL, the MIC (S. marcescens; S. marcescens SMS003) was >128 µg/mL and the MIC (E. cloacae; E. cloacae ECL007) was 64 µg/mL. For the same sequence, the MIC (P. aeruginosa; P. aeruginosa PA004) was 32 µg/mL, the MIC (E. coli; E. coli ECO005) was 4 µg/mL and the MIC (E. faecalis; E. faecalis EFS001) was 4 µg/mL. For the same sequence, the MIC (E. faecalis; E. faecalis EFS008) was 16 µg/mL, the MIC (A. calcoaceticus; A. calcoaceticus AC002) was 4 µg/mL and the “Peptide MIC Alone” value (bacterial isolates; A. baumannii ABI005) was 8 µg/mL. The “Peptide MIC Alone” value (bacterial isolates; B. cepacia BC003) was >128 µg/mL, the “Peptide MIC Alone” value (bacterial isolates; E. cloacae ECL014) was 32 µg/mL and the “Peptide MIC Alone” value (bacterial isolates; E. cloacae ECL015) was 32 µg/mL. The “Peptide MIC Alone” value (bacterial isolates; P. aeruginosa PA008) was 64 µg/mL, the “Peptide MIC Alone” value (bacterial isolates; P. aeruginosa PA039) was 64 µg/mL and the “Peptide MIC Alone” value (bacterial isolates; S. aureus SA025 MRSA) was 2 µg/mL. For the same sequence, the “Peptide MIC Alone” value (bacterial isolates; S. epidermidis SE012) was 4 µg/mL, the “Peptide MIC Alone” value (bacterial isolates; S. epidermidis SE073) was 4 µg/mL and the “Ceftriaxone MIC + Peptide” value (bacterial isolates; A. baumannii ABI005) was 8 µg/mL. For the same sequence, the “Peptide MIC + Ceftriaxone” value (bacterial isolates; A. baumannii ABI005) was 0.5 µg/mL, the “Ceftriaxone MIC + Peptide” value (bacterial isolates; B. cepacia BC003) was 4 µg/mL and the “Peptide MIC + Ceftriaxone” value (bacterial isolates; B. cepacia BC003) was 64 µg/mL. The “Ceftriaxone MIC + Peptide” value (bacterial isolates; E. cloacae ECL014) was 16 µg/mL, the “Peptide MIC + Ceftriaxone” value (bacterial isolates; E. cloacae ECL014) was 8 µg/mL and the “Ceftriaxone MIC + Peptide” value (bacterial isolates; E. cloacae ECL015) was 16 µg/mL. The “Peptide MIC + Ceftriaxone” value (bacterial isolates; E. cloacae ECL015) was 8 µg/mL, the “Ceftriaxone MIC + Peptide” value (bacterial isolates; P. aeruginosa PA008) was 0.125 µg/mL and the “Peptide MIC + Ceftriaxone” value (bacterial isolates; P. aeruginosa PA008) was 32 µg/mL. For the same sequence, the “Ceftriaxone MIC + Peptide” value (bacterial isolates; P. aeruginosa PA039) was 16 µg/mL, the “Peptide MIC + Ceftriaxone” value (bacterial isolates; P. aeruginosa PA039) was 16 µg/mL and the “Ceftriaxone MIC + Peptide” value (bacterial isolates; S. aureus SA025 MRSA) was 0.125 µg/mL. The “Peptide MIC + Ceftriaxone” value (bacterial isolates; S. aureus SA025 MRSA) was 1 µg/mL, the “Ceftriaxone MIC + Peptide” value (bacterial isolates; S. epidermidis SE012) was 16 µg/mL and the “Peptide MIC + Ceftriaxone” value (bacterial isolates; S. epidermidis SE012) was 1 µg/mL. The “Ceftriaxone MIC + Peptide” value (bacterial isolates; S. epidermidis SE073) was 16 µg/mL, the “Peptide MIC + Ceftriaxone” value (bacterial isolates; S. epidermidis SE073) was 1 µg/mL and the FIC (bacterial isolates; peptide + Ceftriaxone, A. baumannii ABI005) was 0.56. It also gave an FIC (bacterial isolates; peptide + Ceftriaxone, B. cepacia BC003) of 0.50, an FIC (bacterial isolates; peptide + Ceftriaxone, E. cloacae ECL014) of 0.38 and an FIC (bacterial isolates; peptide + Ceftriaxone, E. cloacae ECL015) of 0.50. The FIC (bacterial isolates; peptide + Ceftriaxone, P. aeruginosa PA008) was 0.50, the FIC (bacterial isolates; peptide + Ceftriaxone, P. aeruginosa PA039) was 0.50 and the FIC (bacterial isolates; peptide + Ceftriaxone, S. aureus SA025 MRSA) was 0.52. For the same sequence, the FIC (bacterial isolates; peptide + Ceftriaxone, S. epidermidis SE012) was 0.50, the FIC (bacterial isolates; peptide + Ceftriaxone, S. epidermidis SE073) was 0.38 and the MIC (S. aureus; S. aureus SA014) was 2 µg/mL. For the same sequence, the MIC (S. aureus; S. aureus SA093) was 1 µg/mL, the MIC (S. epidermidis; S. epidermidis SE010) was 2 µg/mL and the “Ceftriaxone MIC + Peptide” value ([2]; A. baumannii ABI005) was 8 µg/mL. For the same sequence, the “Peptide MIC + Ceftriaxone” value ([2]; A. baumannii ABI005) was 0.5 µg/mL, the “Peptide MIC Alone” value ([2]; A. baumannii ABI005) was 8 µg/mL and the “Ceftriaxone MIC + Peptide” value ([2]; A. lwoffii ALW007) was 4 µg/mL. For the same sequence, the “Peptide MIC + Ceftriaxone” value ([2]; A. lwoffii ALW007) was 2 µg/mL, the “Peptide MIC Alone” value ([2]; A. lwoffii ALW007) was 4 µg/mL and the “Ceftriaxone MIC + Peptide” value ([2]; B. cepacia BC003) was 8 µg/mL. For the same sequence, the “Peptide MIC + Ceftriaxone” value ([2]; B. cepacia BC003) was 32 µg/mL, the “Peptide MIC Alone” value ([2]; B. cepacia BC003) was >128 µg/mL and the “Ceftriaxone MIC + Peptide” value ([2]; E. cloacae ECL014) was 0.25 µg/mL. For the same sequence, the “Peptide MIC + Ceftriaxone” value ([2]; E. cloacae ECL014) was 16 µg/mL, the “Peptide MIC Alone” value ([2]; E. cloacae ECL014) was 32 µg/mL and the “Ceftriaxone MIC + Peptide” value ([2]; E. cloacae ECL015) was 1 µg/mL. The “Peptide MIC + Ceftriaxone” value ([2]; E. cloacae ECL015) was 16 µg/mL, the “Peptide MIC Alone” value ([2]; E. cloacae ECL015) was 32 µg/mL and the FIC ([2]; A. baumannii ABI005) was 0.56. The FIC ([2]; A. lwoffii ALW007) was 0.75, the FIC ([2]; B. cepacia BC003) was 0.63 and the FIC ([2]; E. cloacae ECL014) was 0.50. The FIC ([2]; E. cloacae ECL015) was 0.52.

In the case of ILKKWPWWPWRRKMILKKAGS [MBI 11D4CN], the MIC (S. maltophilia; S. maltophilia strain SMA001) is reported as >64 µg/mL, the MIC (K. pneumoniae; K. pneumoniae strain KP002) is reported as >64 µg/mL and the MIC (S. marcescens; S. marcescens strain SMS004) is reported as >64 µg/mL. For the same sequence, the MIC (E. cloacae; E. cloacae strain ECL007) was >64 µg/mL, the MIC (P. aeruginosa; P. aeruginosa strain PA004) was >64 µg/mL and the MIC (E. coli; E. coli strain ECO003) was 64 µg/mL. The MIC (E. faecalis; E. faecalis strain EFS002) was 16 µg/mL, the MIC (A. calcoaceticus; A. calcoaceticus strain AC001) was >64 µg/mL and the MIC (E. faecium; E. faecium strain EFM002) was 1 µg/mL. The MIC (S. aureus; S. aureus strain SA009) was 4 µg/mL.

In the case of ILKKIPIIPIRRK [MBI 11A2CN], the MIC (S. maltophilia; S. maltophilia strain SMA001) is reported as >128 µg/mL, the MIC (K. pneumoniae; K. pneumoniae strain KP002) is reported as >128 µg/mL and the MIC (S. marcescens; S. marcescens strain SBS003) is reported as >128 µg/mL. The MIC (E. cloacae; E. cloacae strain ECL007) was >128 µg/mL, the MIC (P. aeruginosa; P. aeruginosa strain PA004) was >128 µg/mL and the MIC (E. coli; E. coli strain ECO003) was >128 µg/mL. For the same sequence, the MIC (E. faecalis; E. faecalis strain EFS002) was >128 µg/mL, the MIC (A. calcoaceticus; A. calcoaceticus strain AC001) was >128 µg/mL and the FIC (bacterial isolates; S. aureus SA014, combination with Ciprofloxacin) was 1.00. The FIC (bacterial isolates; S. aureus SA093, combination with Ciprofloxacin) was 0.75, the MIC (E. faecium; E. faecium strain EFM003) was 16 µg/mL and the MIC (S. aureus; S. aureus strain SA004) was 8 µg/mL.

ILKKWPWWPWRRK [MBI 11E1CN] was tested, and the MIC (S. maltophilia; S. maltophilia strain SMA001) was 64 µg/mL, the MIC (K. pneumoniae; K. pneumoniae strain KP002) was 39 µg/mL and the MIC (S. marcescens; S. marcescens strain SMS003) was >128 µg/mL. For the same sequence, the MIC (E. cloacae; E. cloacae strain ECL007) was >128 µg/mL, the MIC (P. aeruginosa; P. aeruginosa strain PA003) was 128 µg/mL and the MIC (E. coli; E. coli strain ECO003) was 8 µg/mL. It also gave an MIC (E. faecalis; E. faecalis strain EFS002) of 8 µg/mL, an MIC (A. calcoaceticus; A. calcoaceticus strain AC001) of 32 µg/mL and an MIC (E. faecium; E. faecium strain EFM001) of 8 µg/mL. For the same sequence, the MIC (S. aureus; S. aureus strain SA006) was 1 µg/mL.

With PWWPWRRK [MBI 11D3CN] the MIC (S. maltophilia; S. maltophilia strain SMA001) was 64 µg/mL, the MIC (K. pneumoniae; K. pneumoniae strain KP002) was >128 µg/mL and the MIC (S. marcescens; S. marcescens strain SMS004) was >128 µg/mL. For the same sequence, the MIC (E. cloacae; E. cloacae strain ECL007) was >128 µg/mL, the MIC (P. aeruginosa; P. aeruginosa strain PA024) was >128 µg/mL and the MIC (E. coli; E. coli strain ECO002) was 64 µg/mL. For the same sequence, the MIC (E. faecalis; E. faecalis strain EFS002) was 32 µg/mL, the MIC (A. calcoaceticus; A. calcoaceticus strain AC001) was >128 µg/mL and the MIC (E. faecium; E. faecium strain EFM003) was 8 µg/mL. The MIC (S. aureus; S. aureus strain SA009) was 8 µg/mL.
